Test results from US7998965B2, “Glutamate aggrecanase inhibitors” (Wyeth LLC, priority 2005, dated 2011).
Read-outs that look alike come from different tables or passages of the source.

Assays:
[1] = molecular target: T1, purified recombinant human Aggrecanase-2 (Ag2t-Phe628-Strep) (Homo sapiens, UniProt Q9UNA0); test: In vitro fluorescence screen for Aggrecanase-2 inhibitors; assay type: biochemical; conditions: for IC50: read-out: Agg 2 IC50
T1 construct: the form used is denoted as Ag2t-Phe628-Strep (MW=41,737)
T1 sequence (Q9UNA0 262-628): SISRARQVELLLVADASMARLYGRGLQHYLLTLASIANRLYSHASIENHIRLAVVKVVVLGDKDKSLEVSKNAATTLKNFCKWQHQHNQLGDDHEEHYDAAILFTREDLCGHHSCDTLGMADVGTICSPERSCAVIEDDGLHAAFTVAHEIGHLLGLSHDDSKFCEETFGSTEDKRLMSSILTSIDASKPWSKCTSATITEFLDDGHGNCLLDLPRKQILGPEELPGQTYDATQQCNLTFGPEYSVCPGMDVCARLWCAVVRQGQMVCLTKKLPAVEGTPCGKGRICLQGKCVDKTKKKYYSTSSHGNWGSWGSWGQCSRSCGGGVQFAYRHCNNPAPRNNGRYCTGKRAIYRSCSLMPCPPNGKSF

[2] = molecular target: T2, purified recombinant human Aggrecanase-1 (rAgg1) (Homo sapiens, UniProt O75173); test: In vitro fluorescence screen for Aggrecanase-1 inhibitors; assay type: biochemical; set-up: Agg1 % at concentration: scale not given here; conditions: for IC50: read-out: Agg1 IC50
T2 sequence (O75173 213-837): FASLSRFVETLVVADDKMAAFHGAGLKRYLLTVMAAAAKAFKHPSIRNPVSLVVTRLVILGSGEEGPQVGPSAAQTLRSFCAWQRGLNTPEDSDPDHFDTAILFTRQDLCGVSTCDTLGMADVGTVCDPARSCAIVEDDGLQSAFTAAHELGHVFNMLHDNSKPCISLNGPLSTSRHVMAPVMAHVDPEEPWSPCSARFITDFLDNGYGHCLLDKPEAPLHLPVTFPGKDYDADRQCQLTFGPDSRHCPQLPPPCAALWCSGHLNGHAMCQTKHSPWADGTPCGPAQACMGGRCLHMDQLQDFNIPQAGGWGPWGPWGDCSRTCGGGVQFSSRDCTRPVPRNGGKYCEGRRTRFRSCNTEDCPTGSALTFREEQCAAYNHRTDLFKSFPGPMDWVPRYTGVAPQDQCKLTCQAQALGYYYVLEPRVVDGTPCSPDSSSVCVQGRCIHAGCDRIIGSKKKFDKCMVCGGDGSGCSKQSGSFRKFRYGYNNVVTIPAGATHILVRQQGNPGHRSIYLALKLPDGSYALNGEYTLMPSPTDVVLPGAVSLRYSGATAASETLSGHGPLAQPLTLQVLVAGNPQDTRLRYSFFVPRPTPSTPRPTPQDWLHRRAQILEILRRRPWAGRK

IC50 ([2]; Table 3) [nM]	IC50 ([1]; Table 2) [nM]	IC50 ([2]; Table 2) [nM]	SMILES	further results
–	~22000	20000	CC(C)(NC(=O)[C@H](CCC(=O)O)NC(=O)c1ccc2c(c1)C(=O)c1ccccc1-2)c1ccccc1 [Example 8MMMMM, N^1-(1-methyl-1-phenylethyl)-N^2-[(9-oxo-9H-fluoren-2-yl)carbonyl]-L-α-glutamine]	–
–	5100	550	O=C(O)CC[C@H](NC(=O)c1ccc(-c2ccccc2)cc1)C(=O)N[C@H](CO)Cc1ccccc1 [Example 8MMMMMM, N-[(1S)-1-benzyl-2-hydroxyethyl]-N^2-(biphenyl-4-ylcarbonyl)-L-α-glutamine]	–
198	–	–	COc1cc(CNC(=O)[C@H](CCC(=O)O)NC(=O)c2ccc(-c3ccc(CBr)cc3)cc2)cc(OC)c1OC [Example 8MMMMMMM, N^2-{[4′-(bromomethyl)biphenyl-4-yl]carbonyl}-N-(3,4,5-trimethoxybenzyl)-L-α-glutamine]	IC50 ([1]; Table 3): 614 nM
–	1890	1200	CC(C)(NC(=O)[C@H](CCC(=O)O)NC(=O)C1c2ccccc2-c2ccccc21)c1ccccc1 [Example 8NNNNN, N^2-(9H-fluoren-9-ylcarbonyl)-N^1-(1-methyl-1-phenylethyl)-L-α-glutamine]	–
–	> 200000	> 50000	CC(C)(NC(=O)[C@H](CCC(=O)O)NC(=O)c1cccc(Oc2ccccc2)c1)c1ccccc1 [Example 8OOOOO, N^1-(1-methyl-1-phenylethyl)-N^2-(3-phenoxybenzoyl)-L-α-glutamine]	–
< 30	–	–	CC(C)(Cc1ccc(F)cc1)NC(=O)[C@H](CCC(=O)O)NC(=O)c1ccc(-c2ccco2)cc1 [Example 8OOOOOOO, N-[2-(4-fluorophenyl)-1,1-dimethylethyl]-N^2-[4-(2-furyl)benzoyl]-L-α-glutamine]	IC50 ([1]; Table 3): 100 to 400 nM
< 30	–	–	CC(C)(Cc1ccccc1)NC(=O)[C@H](CCC(=O)O)NC(=O)c1ccc(-c2ccccc2)s1 [Example 8OOOOOOOO, N-(1,1-dimethyl-2-phenylethyl)-N^2-[(5-phenyl-2-thienyl)carbonyl]-L-α-glutamine]	IC50 ([1]; Table 3): 200 to 600 nM
–	2970	157	C[C@H](NC(=O)[C@H](CCC(=O)O)NC(=O)c1ccc(-c2ccccc2)cc1)c1ccccc1 [Example 8PPPPP, N^2-(biphenyl-4-ylcarbonyl)-N^1-[(1S)-1-phenylethyl]-L-α-glutamine]	–
3120	–	–	Cc1cccc(CNC(=O)[C@H](CCC(=O)O)NC(=O)c2ccc(-c3ccc(CO)cc3)cc2)c1 [Example 8PPPPPPP, N^2-{[4′-(hydroxymethyl)biphenyl-4-yl]carbonyl}-N-(3-methylbenzyl)-L-α-glutamine]	inhibition at 16.7 µM ([1]; Table 3, at 16700 (nM), read-out: Agg 2 % at concentration): 48%
–	1160	108	C[C@H](NC(=O)[C@H](CCC(=O)O)NC(=O)c1ccc2c(c1)Cc1ccccc1-2)c1ccccc1 [Example 8QQQQQ, N^2-(9H-fluoren-2-ylcarbonyl)-N^1-[(1S)-1-phenylethyl]-L-α-glutamine]	–
–	2900	129	C[C@H](NC(=O)[C@H](CCC(=O)O)NC(=O)c1ccc(-c2ccccc2)cc1)c1ccc(F)cc1 [Example 8RRRRR, N^2-(biphenyl-4-ylcarbonyl)-N1-[(1S)-1-(4-fluorophenyl)ethyl]-L-α-glutamine]	–
57	–	–	CC(C)(Cc1ccc(F)cc1)NC(=O)[C@H](CCC(=O)O)NC(=O)c1ccc(-c2ccc(F)c(Cl)c2)cc1 [Example 8SSSSSSS, N^2-[(3′-chloro-4′-fluorobiphenyl-4-yl)carbonyl]-N-[2-(4-fluorophenyl)-1,1-dimethylethyl]-L-α-glutamine]	IC50 ([1]; Table 3): 230 nM; Ki ([1]; Table 3, read-out: Ki Agg2): 356 nM; Ki ([2]; Table 3, read-out: Ki Agg1): 22 nM
–	> 22000	> 17000	O=C(O)CC[C@H](NC(=O)c1ccc(Oc2ccccc2)cc1)C(=O)NCCCCCCO [Example 8TTTT, N^1-(6-hydroxyhexyl)-N^2-(4-phenoxybenzoyl)-L-α-glutamine]	–

Further lines, the compound ahead of its results:

SMILES	IC50 ([2]; Table 3) [nM]	IC50 ([1]; Table 2) [nM]	IC50 ([2]; Table 2) [nM]	further results
CC(C)(Cc1ccc(Cl)cc1)NC(=O)[C@H](CCC(=O)O)NC(=O)c1ccc(-c2cccnc2)s1 [Example 8JJJJJJJJ, N-[2-(4-chlorophenyl)-1,1-dimethylethyl]-N^2-[(5-pyridin-3-yl-2-thienyl)carbonyl]-L-α-glutamine]	< 30	–	–	IC50 ([1]; Table 3): 800 to 2500 nM
CC(C)(Cc1ccc(Cl)cc1)NC(=O)[C@H](CCC(=O)O)NC(=O)c1cccc(-c2ccc(Cl)s2)c1 [Example 8JJJJJJJJJ, N-[2-(4-chlorophenyl)-1,1-dimethylethyl]-N^2-[3-(5-chloro-2-thienyl)benzoyl]-L-α-glutamine]	–	–	–	Agg 2 % at concentration ([1]; Table 3, at 25000 (nM)): 10%; Agg1 % at concentration ([2]; Table 3, at 25000 (nM)): 25%
O=C(O)CC[C@H](NC(=O)c1ccc(-c2ccccc2)cc1)C(=O)NCCc1ccc(Br)cc1 [Example 8KKK, N^2-(biphenyl-4-ylcarbonyl)-N^1-[2-(4-bromophenyl)ethyl]-L-α-glutamine]	–	–	–	IC50 ([1]; Table 1): 2000 nM; IC50 ([2]; Table 1): 120 nM
O=C(O)CC[C@H](NC(=O)C1c2ccccc2-c2ccccc21)C(=O)NCc1ccccc1 [Example 8KKKKK, N^1-benzyl-N^2-(9H-fluoren-9-ylcarbonyl)-L-α-glutamine]	–	> 22000	> 50000	–
C[C@@H](CNC(=O)[C@H](CCC(=O)O)NC(=O)c1ccc(-c2ccccc2)cc1)c1ccccc1 [Example 8KKKKKK, N^2-(biphenyl-4-ylcarbonyl)-N-[(2R)-2-phenylpropyl]-L-α-glutamine]	–	1670	350	–
CC(C)(Cc1ccc(Cl)s1)NC(=O)[C@H](CCC(=O)O)NC(=O)c1ccc(-c2ccc(F)c(Cl)c2)s1 [Example 8KKKKKKK, N^2-{[5-(3-chloro-4-fluorophenyl)-2-thienyl]carbonyl}-N-[2-(5-chloro-2-thienyl)-1,1-dimethylethyl]-L-α-glutamine]	< 30	–	–	IC50 ([1]; Table 3): < 30 nM
O=C(O)CC[C@H](NC(=O)c1cccc(Oc2ccccc2)c1)C(=O)NCc1ccccc1 [Example 8LLLLL, N^1-benzyl-N^2-(3-phenoxybenzoyl)-L-α-glutamine]	–	> 200000	> 17000	–
CC(C)(Cc1ccc(F)cc1)NC(=O)[C@H](CCC(N)=O)NC(=O)c1ccc(-c2ccccc2)cc1 [Example 8LLLLLL, N^2-(biphenyl-4-ylcarbonyl)-N^1-[2-(4-fluorophenyl)-1,1-dimethylethyl]-L-α-glutamamide]	–	> 100000	> 25000	–
COc1cc(CNC(=O)[C@H](CCC(=O)O)NC(=O)c2ccc(-c3ccc(CO)cc3)cc2)cc(OC)c1OC [Example 8LLLLLLL, N^2-{[4′-(hydroxymethyl)biphenyl-4-yl]carbonyl}-N-(3,4,5-trimethoxybenzyl)-L-α-glutamine]	228	–	–	IC50 ([1]; Table 3): 3380 nM
CCC(C)(C)NC(=O)[C@H](CCC(=O)O)NC(=O)c1ccc(-c2ccccc2)cc1 [Example 8MM, N^2-(biphenyl-4-ylcarbonyl)-N^1-(1,1-dimethylpropyl)-L-α-glutamine]	–	–	–	IC50 ([1]; Table 1): 980 nM; Ki ([2]; Table 1, enzyme not given, column follows Agg1 IC50, read-out: Ki): 126 nM; IC50 ([2]; Table 1): 58 nM
O=C(O)CC[C@H](NC(=O)c1ccc(-c2ccccc2)cc1)C(=O)NCCc1cccc(Br)c1 [Example 8MMM, N^2-(biphenyl-4-ylcarbonyl)-N^1-[2-(3-bromophenyl)ethyl]-L-α-glutamine]	–	–	–	IC50 ([1]; Table 1): 500 nM; IC50 ([2]; Table 1): 40 nM
O=C(O)CC[C@H](NC(=O)c1ccc(-c2ccccc2)cc1)C(=O)NCCC(c1ccccc1)c1ccccc1 [Example 8OOO, N^2-(biphenyl-4-ylcarbonyl)-N^1-(3,3-diphenylpropyl)-L-α-glutamine]	–	–	–	IC50 ([1]; Table 1): 1000 nM; IC50 ([2]; Table 1): 280 nM
CCCCCNC(=O)[C@H](CCC(=O)O)NC(=O)c1ccc(-c2ccccc2)cc1 [Example 8RRR, N^2-(biphenyl-4-ylcarbonyl)-N^1-pentyl-L-α-glutamine]	–	–	–	IC50 ([1]; Table 1): 680 nM; IC50 ([2]; Table 1): 82 nM
CC(C)(Cc1ccc(F)cc1)NC(=O)[C@H](CCC(=O)O)NC(=O)c1ccc(-c2ccc3c(c2)CCO3)cc1 [Example 8RRRRRRR, N^2-[4-(2,3-dihydro-1-benzofuran-5-yl)benzoyl]-N-[2-(4-fluorophenyl)-1,1-dimethylethyl]-L-α-glutamine]	70 to 210	–	–	inhibition at 1.2 µM ([1]; read-out: Agg 2 % at concentration): 48%
CC(NC(=O)[C@H](CCC(=O)OC(C)(C)C)NC(=O)c1ccc(-c2ccccc2)cc1)c1ccccc1 (stereo partly drawn) [Example 8SSSSS, tert-butyl N^2-(biphenyl-4-ylcarbonyl)-N^1-(1-Phenylethyl)-L-α-glutaminate]	–	2470	208	–
